Reference: patent US10856562B2, “Flavor composition and edible compositions containing same” (MARS, INCORPORATED, priority 2013, dated 2020)
Square brackets hold non-standard residues; d marks the D form. Ends that are not written are not given here. pGlu = O=C1CC[C@@H](C(=O)O)N1

System: panelists
Assay: Attribute perception scores of flavor enhancers in solution (Example 6)
Assay type: in vivo, human
Parameters: key to Metallic / Numbing / Atringent / Salt / Sweet / Sour / Bitter / Umami / Sour, mean evaluation score in solution / Numbing, mean evaluation score in solution / Astringent / Umami FF: 15-point intensity scale, 0 = none, 15 = very strong
Settings: for Astringent / Bitter / Flinty/Mineral / Metallic / Numbing / Salt / Sour / Sweet / Umami / Umami FF / Atringent / Mineral/Flinty / Umami/brothy: solution
Protocol: Descriptive attributes (e.g., taste, flavor and chemical feeling factors) of three use levels of pGlu-Cys (FE-35), pGlu-Cys-Gly (FE-36), pGlu-Cys-Cys (FE-37), pGlu-Cys-Val (FE-38) and pGlu-Val-Cys (UE-30) flavor composition peptides were determined. The three use levels were as follows: 1.0 ppb, 10.0 ppb and 100.0 ppb.
Data was collected for the attributes of the product in-mouth for the use levels according to the following protocol: • The samples were analyzed for flavor by six to nine members of a panel, trained and experienced in flavor evaluation using the Spectrum™ method. Samples were evaluated across multiple panel sessions. • The strength of each attribute was rated on a 15-point scale, where 0=none and 15=very strong. • This scale incorporates the ability to use tenths of a point and therefore has the potential of 150 scale differentiations. • The scale may be expanded beyond 15 points to include extreme ratings if necessary.
A summary of the concentrations of NaCl, water and flavor composition peptides in the solution samples is described in table 24.
The panelists evaluated each sample for the attributes described by table 25.

[1] = 10.0 ppb, mean evaluation score
[2] = 100.0 ppb, mean evaluation score
[3] = Concentration 1, MAX, 15-point scale
[4] = Concentration 1, MEAN, 15-point scale
[5] = Concentration 1, MIN, 15-point scale
[6] = Concentration 10, MAX, 15-point scale
[7] = Concentration 10, MEAN, 15-point scale
[8] = Concentration 10, MIN, 15-point scale
[9] = Concentration 100, MAX, 15-point scale
[10] = Concentration 100, MEAN, 15-point scale
[11] = Concentration 100, MIN, 15-point scale

Which “Patterns of attributes in solution as concentrations increase” value (1.0 to 100 ppb) does the source give for [pGlu]-Cys-Gly [FE-36] here?
The value was “No distinct patterns are seen”.

And the Astringent (1.0 ppb, mean evaluation score)?
The Astringent was 0.0.

What about the Bitter (1.0 ppb, mean evaluation score) of the same substance?
The Bitter was 0.0.

What about the Flinty/Mineral (1.0 ppb, mean evaluation score) of the same substance?
The Flinty/Mineral was 0.7.

And the Metallic (1.0 ppb, mean evaluation score)?
Its Metallic is 0.1.

And the Numbing (1.0 ppb, mean evaluation score)?
The Numbing was 0.0.

What about the Salt (1.0 ppb, mean evaluation score) of the same substance?
The Salt was 2.6.

And the Sour (1.0 ppb, mean evaluation score)?
Its Sour is 0.0.

And the Sweet (1.0 ppb, mean evaluation score)?
The Sweet was 0.2.

And the Umami (1.0 ppb, mean evaluation score)?
The Umami was 0.3.

What about the “Umami FF” value (1.0 ppb, mean evaluation score) of the same substance?
Its value is 1.5.

And the Astringent [1]?
The Astringent was 0.0.

And the Bitter [1]?
The Bitter was 0.0.

And the Flinty/Mineral [1]?
The Flinty/Mineral was 0.8.

What about the Metallic [1] of the same substance?
Its Metallic is 0.0.

And the Numbing [1]?
The Numbing was 0.0.

And the Salt [1]?
The Salt was 1.9.

What about the Sour [1] of the same substance?
The Sour was 0.0.

What about the Sweet [1] of the same substance?
The Sweet was 0.0.

What about the Umami [1] of the same substance?
Its Umami is 0.1.

What about the “Umami FF” value [1] of the same substance?
Its value is 0.9.

What about the Astringent [2] of the same substance?
The Astringent was 0.0.

What about the Bitter [2] of the same substance?
The Bitter was 0.0.

And the Flinty/Mineral [2]?
Its Flinty/Mineral is 0.8.

What about the Metallic [2] of the same substance?
Its Metallic is 0.0.

What about the Numbing [2] of the same substance?
Its Numbing is 0.0.

What about the Salt [2] of the same substance?
Its Salt is 2.1.

And the Sour [2]?
Its Sour is 0.0.

What about the Sweet [2] of the same substance?
Its Sweet is 0.0.

And the Umami [2]?
Its Umami is 0.0.

And the “Umami FF” value [2]?
The value was 1.6.

What about the Atringent [3] of the same substance?
Its Atringent is 0.0.

And the Bitter [3]?
The Bitter was 0.0.

What about the Metallic [3] of the same substance?
Its Metallic is 0.8.

What about the Mineral/Flinty [3] of the same substance?
Its Mineral/Flinty is 1.0.

And the Numbing [3]?
The Numbing was 0.0.

And the Salt [3]?
Its Salt is 3.0.

What about the Sour [3] of the same substance?
The Sour was 0.0.

And the Sweet [3]?
Its Sweet is 1.0.

And the Umami [3]?
The Umami was 2.0.

What about the Umami/brothy [3] of the same substance?
Its Umami/brothy is 1.0.

What about the Atringent [4] of the same substance?
Its Atringent is 0.0.

What about the Bitter [4] of the same substance?
Its Bitter is 0.0.

What about the Metallic [4] of the same substance?
Its Metallic is 0.1.

And the Mineral/Flinty [4]?
Its Mineral/Flinty is 0.7.

What about the Numbing [4] of the same substance?
Its Numbing is 0.0.

What about the Salt [4] of the same substance?
Its Salt is 2.6.

What about the Sour [4] of the same substance?
The Sour was 0.0.

What about the Sweet [4] of the same substance?
Its Sweet is 0.2.

And the Umami [4]?
The Umami was 1.5.

What about the Umami/brothy [4] of the same substance?
Its Umami/brothy is 0.3.

And the Atringent [5]?
Its Atringent is 0.0.

What about the Bitter [5] of the same substance?
Its Bitter is 0.0.

And the Metallic [5]?
Its Metallic is 0.0.

And the Mineral/Flinty [5]?
Its Mineral/Flinty is 0.0.

What about the Numbing [5] of the same substance?
The Numbing was 0.0.

What about the Salt [5] of the same substance?
The Salt was 2.5.

What about the Sour [5] of the same substance?
Its Sour is 0.0.

What about the Sweet [5] of the same substance?
The Sweet was 0.0.

What about the Umami [5] of the same substance?
The Umami was 1.0.

What about the Umami/brothy [5] of the same substance?
The Umami/brothy was 0.0.

What about the Atringent [6] of the same substance?
Its Atringent is 0.0.

What about the Bitter [6] of the same substance?
Its Bitter is 0.0.

What about the Metallic [6] of the same substance?
Its Metallic is 0.0.

What about the Mineral/Flinty [6] of the same substance?
Its Mineral/Flinty is 1.5.

What about the Numbing [6] of the same substance?
The Numbing was 0.0.

And the Salt [6]?
The Salt was 2.3.

What about the Sour [6] of the same substance?
The Sour was 0.0.

And the Sweet [6]?
Its Sweet is 0.0.

And the Umami [6]?
The Umami was 2.0.

What about the Umami/brothy [6] of the same substance?
Its Umami/brothy is 0.8.

What about the Atringent [7] of the same substance?
The Atringent was 0.0.

And the Bitter [7]?
The Bitter was 0.0.

And the Metallic [7]?
The Metallic was 0.0.

And the Mineral/Flinty [7]?
Its Mineral/Flinty is 0.8.

What about the Numbing [7] of the same substance?
Its Numbing is 0.0.

What about the Salt [7] of the same substance?
The Salt was 1.9.

What about the Sour [7] of the same substance?
Its Sour is 0.0.

And the Sweet [7]?
The Sweet was 0.0.

What about the Umami [7] of the same substance?
The Umami was 0.9.

And the Umami/brothy [7]?
The Umami/brothy was 0.1.

And the Atringent [8]?
Its Atringent is 0.0.

And the Bitter [8]?
The Bitter was 0.0.

What about the Metallic [8] of the same substance?
The Metallic was 0.0.

And the Mineral/Flinty [8]?
The Mineral/Flinty was 0.0.

And the Numbing [8]?
Its Numbing is 0.0.

What about the Salt [8] of the same substance?
The Salt was 1.5.

And the Sour [8]?
Its Sour is 0.0.

What about the Sweet [8] of the same substance?
Its Sweet is 0.0.

And the Umami [8]?
Its Umami is 0.0.

What about the Umami/brothy [8] of the same substance?
The Umami/brothy was 0.0.

What about the Atringent [9] of the same substance?
Its Atringent is 0.0.

What about the Bitter [9] of the same substance?
Its Bitter is 0.0.

What about the Metallic [9] of the same substance?
The Metallic was 0.0.

And the Mineral/Flinty [9]?
Its Mineral/Flinty is 1.0.

What about the Numbing [9] of the same substance?
Its Numbing is 0.0.

What about the Salt [9] of the same substance?
Its Salt is 3.0.

And the Sour [9]?
Its Sour is 0.0.

And the Sweet [9]?
The Sweet was 0.0.

And the Umami [9]?
Its Umami is 3.0.

And the Umami/brothy [9]?
Its Umami/brothy is 0.0.

What about the Atringent [10] of the same substance?
Its Atringent is 0.0.

And the Bitter [10]?
The Bitter was 0.0.

And the Metallic [10]?
The Metallic was 0.0.

What about the Mineral/Flinty [10] of the same substance?
The Mineral/Flinty was 0.8.

And the Numbing [10]?
The Numbing was 0.0.

And the Salt [10]?
Its Salt is 2.1.

And the Sour [10]?
Its Sour is 0.0.

What about the Sweet [10] of the same substance?
The Sweet was 0.0.

And the Umami [10]?
The Umami was 1.6.

What about the Umami/brothy [10] of the same substance?
Its Umami/brothy is 0.0.

And the Atringent [11]?
The Atringent was 0.0.

What about the Bitter [11] of the same substance?
Its Bitter is 0.0.

And the Metallic [11]?
The Metallic was 0.0.

What about the Mineral/Flinty [11] of the same substance?
The Mineral/Flinty was 0.0.

And the Numbing [11]?
Its Numbing is 0.0.

And the Salt [11]?
The Salt was 1.5.

And the Sour [11]?
Its Sour is 0.0.

And the Sweet [11]?
The Sweet was 0.0.

What about the Umami [11] of the same substance?
Its Umami is 0.5.

And the Umami/brothy [11]?
Its Umami/brothy is 0.0.
